Assay results taken from PubChem BioAssay AID179 (DTP/NCI, 2004).
pEC50, pIC50: −log10 of the molar value. Values joined by “and” are separate entries in the source; they are usually repeats but may differ in a detail not shown here. Equal values may be shown once. Active and inactive are the calls of the source.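 Rule for the calls: active = compounds giving half or more protection of infected cells from virus-caused growth loss, again on retest; inactive = the rest.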

Test system: CEM cells HIV-1 protection, formazan growth assay
Experiment: NCI AIDS Antiviral Assay
Conditions: for pIC50: measured here: growth of uninfected CEM cells
How it was run: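 Protection of CEM cells against HIV-1 measured as cell growth via soluble formazan read-out, with five concentrations tested on both infected and uninfected cells; failure to protect may reflect toxicity.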

Row | Structure (SMILES) | pEC50 | pIC50 | outcome
1 | CCC1CCC2CCCC(C)N12 (centres undefined) | < 2.83 | < 2.83 | –
2 | CN=C(NC#N)N(Cc1ccccc1)Cc1ccccc1 | < 3.89 | < 4.00 | –
3 | Cc1cc(NC2=NCCO2)c2c(c1C)CCCC2 | < 3.70 | 4.53 | –
4 | Cc1nn(-c2ccccc2)c(=O)n2c1nc1ccccc12 | < 4.03 | 4.23 | –
5 | NC1=Nc2cc(Cl)ccc2Sc2nc3ccccc3n21 | < 3.70 | 4.68 | –
6 | CN(C)c1ccc2c3c(c(=O)oc2c1)CCC3 | < 4.10 | < 4.10 | –
7 | COC(=O)C1(C(=O)OC)N=C(C)OC1c1ccccn1 (centres undefined) | < 3.70 | < 3.70 | –
8 | COc1ccc(C(CC(=O)O)c2ccccc2)cc1 (centres undefined) | < 3.15 | 3.30 | –
9 | Cc1c2c(n(Cc3ccccn3)c1C)NN=C(C#N)S2(=O)=O | < 3.70 | < 3.70 | –
10 | CC(C(O)Cc1ccccc1)N(C)N=Nc1ccc([N+](=O)[O-])cc1 (centres undefined) | < 3.70 | 4.70 | –
11 | CCOC(=O)/C(=C\c1ccc(C#N)cc1)[Se]c1ccccc1 | < 4.28 | < 4.28 | –
12 | CC(=O)Nc1ccc(C2SCc3nc4ccccc4n32)cc1 (centres undefined) | < 3.70 | < 3.70 | –
13 | CCOC(=O)CCC(NC(=O)c1ccc(Nc2nc3ccccc3nc2-c2cccs2)cc1)C(=O)OCC (centres undefined) | < 3.70 | 4.87 | –
14 | Cc1cc2c(=O)c3ccccc3[nH]c2c(C(N)=O)c1C | – | – | inactive
15 | O=C(O)C1CCC(c2ccc(Cl)cc2)N1 (centres undefined) | < 3.70 | < 3.70 | –
16 | CN1C(=S)Nc2ncn(C)c2S1(=O)=O | < 4.09 | < 4.09 | –
17 | CC1CC2C(=O)NC(=O)C2c2[nH]c3ccccc3c21 (centres undefined) | – | – | inactive
18 | C=C1C2CCC3C(CCC4C35CCC[C@]4(C)CN3CCO[C@H]35)(C2)[C@@H]1O (some centres undefined) | – | – | inactive
19 | COC(=O)C1=C(C(=O)OC)SC(=C(Br)C(=C2SC(C(=O)OC)=C(C(=O)OC)S2)C(=C2SC(C(=O)OC)=C(C(=O)OC)S2)C(Br)=C2SC(C(=O)OC)=C(C(=O)OC)S2)S1 | < 5.60 | < 5.60 | –
20 | O=[N+]([O-])c1ccc(OCc2nnc(CCCCCCCCc3nnc(COc4ccc([N+](=O)[O-])cc4)o3)o2)cc1 | < 3.70 | < 3.70 | –
21 | Nc1nnc(N)c2[nH]cnc12 | < 3.70 | < 3.70 | –
22 | COc1cccc(OC)c1NC1=NCCO1 | < 3.70 | 3.92 | –

Row | Structure (SMILES) | pEC50 | pIC50 | outcome
23 | OCCN=C1Nc2ccc(Cl)cc2C(=S)N2CSC[C@@H]12 | < 3.70 | < 3.70 | –
24 | Cc1cc(C)nc(NS(=O)(=O)c2ccc(NNC(=O)c3cccc4c(NNc5ccc(S(=O)(=O)Nc6nc(C)cc(C)n6)cc5)c5ccccc5nc34)cc2)n1 | < 3.70 | 4.66 | –
25 | COc1ccc(N=C2S/C(=N\C(=Nc3ccccc3)SCc3ccccc3)N(c3ccccc3)C2=Nc2ccc(OC)cc2)cc1 | < 3.70 | 3.92 | –
26 | COc1cc([N+](=O)[O-])ccc1C(=O)Nc1c2ccccc2nc2ccccc12 | < 3.70 | 6.32 | –
27 | NNC(=O)c1c(SCc2ccccc2)nc2c3ccccc3ccn12 | < 3.70 | 4.80 | –
28 | O=c1/c(=N\O)c(=O)c2ccccc2/c1=N\O | < 3.70 | 5.00 | –
29 | NC(C(F)(F)F)(C(F)(F)F)P(=O)(c1ccccc1)c1ccccc1 | < 3.70 | < 3.70 | –
30 | CCOC(=O)C(=[N+]=[N-])C(=O)CN1C(=O)c2ccccc2C1=O | < 3.36 | < 3.36 | –
31 | O=S1(=O)c2ccccc2N2CCCc3cc(Cl)cc1c32 | < 3.70 | < 3.70 | –
32 | CCN1CCC(O)(c2ccc(O)cc2)C(C(=O)c2ccc(O)cc2)C1 (centres undefined) | < 4.79 | < 4.79 | –
33 | O=c1c(-c2ccc(O)cc2)coc2cc(OC3OC(CO)C(O)C(O)C3O)cc(O)c12 (centres undefined) | < 3.70 | < 3.70 | –
34 | CC12ON=C(c3ccccc3)N1C=CN1C(c3ccccc3)=NOC12 (centres undefined) | < 3.70 | < 3.70 | –
35 | CCOC(=O)c1ccc(NC(NC(=O)CC)(C(F)(F)F)C(F)(F)F)cc1 | < 3.70 | 4.61 | –
36 | C/C(=N/N(C=O)C[n+]1ccccc1)C(CN(CC(C)C)CC(C)C)C(=O)Nc1ccc(C)cc1C (centres undefined) | < 4.16 | < 4.16 | –
37 | O=S(=O)(c1ccccc1)N1CC2(CN(S(=O)(=O)c3ccccc3)c3ccccc31)CN(S(=O)(=O)c1ccccc1)c1ccccc1N(S(=O)(=O)c1ccccc1)C2 | < 3.70 | < 3.70 | –
38 | CC(=O)OC1COC(n2c3ccccc3c3ccc4c5ccccc5[nH]c4c32)C(OC(C)=O)C1OC(C)=O (centres undefined) | < 3.93 | 3.94 | –
39 | Cc1c(C)c2c(c(N)c1C#N)C(=O)N(O)C2=O | < 3.70 | < 3.70 | –
40 | Cc1cc(C)cc(NC(=O)CCC(=O)C2CCC/C2=N\NC(=O)C(=O)NN)c1 (centres undefined) | < 4.17 | < 4.17 | –
41 | COc1ccc(C(=O)N2CCc3c([nH]c4ccccc34)C2C(=O)O)o1 (centres undefined) | < 4.40 | 4.76 | –
42 | CC[C@@]12C=CC(=S)N(CCSc3ccccc3)[C@@H]1c1c(n(S(=O)(=O)c3ccc(OC)cc3)c3ccccc13)CC2 | < 3.90 | < 3.90 | –
43 | O=[S@](c1ccccc1)[C@@H]1CC2C3CC4C2C4C31 (some centres undefined) | < 3.27 | 3.49 | –
44 | Cc1c(C)c2ccc3c(c2oc1=O)[C@@H](OC(=O)C12CCC(C)(C(=O)O1)C2(C)C)[C@@H](OC(=O)C12CCC(C)(C(=O)O1)C2(C)C)C(C)(C)O3 (some centres undefined) | 6.61 | 3.91 | –

Row | Structure (SMILES) | pEC50 | pIC50 | outcome
45 | CN1C(=O)C(O)(c2c3c(c(C4(O)C(=O)N(C)c5ccccc54)c4c2OCO4)OCO3)c2ccccc21 (centres undefined) | < 3.70 | < 3.70 | –
46 | Cc1c2cc(Cl)ccc2n2c(=O)c3ccccc3[nH]c(=O)c12 | < 4.80 | < 4.80 | –
47 | CCOC(=O)C1C(c2ccc(F)cc2)C(C(=O)OCC)C(O)(C(F)(F)F)OC1(O)C(F)(F)F (centres undefined) | – | – | inactive
48 | O=C(CC(C(=O)c1ccsc1)c1ccccc1)c1cccs1 (centres undefined) | < 3.70 | 4.40 | –
49 | O=c1oc2cc(O)ccc2c(O)c1C(c1ccc2ccccc2c1)c1c(O)c2ccc(O)cc2oc1=O | – | – | inactive
50 | CC(=O)Nc1ccc(/C=C2/NC(=S)N(/C=C3\C(=O)Oc4ccccc4C3=O)C2=O)cc1 | < 3.70 | 3.81 | –
51 | Cc1ccc([P+](Cc2ccccc2)(c2ccccc2)c2ccc(C)cc2)cc1 | < 3.70 | 6.13 | –
52 | CCc1ccccc1NC(=O)C1=C(C)NC(C)=C(C(=O)Nc2ccccc2CC)C1c1ccc(NC(C)=O)cc1 | < 4.46 | < 4.46 | –
53 | CC(=O)OC1C(CCl)OC(N=[N+]=[N-])C(OC(C)=O)C1OC(C)=O (centres undefined) | – | – | inactive
54 | CC(=O)N(O)C(C)=O | < 2.67 | 2.75 | –
55 | O=S(=O)(c1ccc(Cl)cc1)S(=O)(=O)c1ccc(Cl)cc1 | 4.97 | 4.57 | –
56 | O=[N+]([O-])c1cc(C(F)(F)F)ccc1S(=O)(=O)c1ccccc1 | < 4.11 | 5.41 and 5.90 | –
57 | O=C(O)CCCc1ccc2c(c1)CC1(C2)Cc2ccc(CCCC(=O)O)cc2C1 | < 3.70 | 3.85 | –
58 | CCOP1(=O)CC(C)=C(Cl)C(OC)C1 (centres undefined) | < 3.70 | 3.97 | –
59 | CN(C)c1nn2c(-c3ccccc3)nnc2s1 | – | – | inactive
60 | S=C1C(=Nc2ccccc2)N(c2ccccc2)/C(=N\c2cccc[n+]2Cc2ccccc2)N1c1ccccc1 | 4.81 | 4.56 | –
61 | COc1ccc(Cc2c(=O)[nH]nc3ccccc23)cc1 | < 4.15 | < 4.15 | –
62 | COc1ccc(N2C(=O)C3c4[nH]c5c(C)cccc5c4C4CCC(C(C)C)CC4C3C2=O)cc1 (centres undefined) | < 3.70 | 4.63 | –
63 | Cc1cn(COCCSc2ccccc2)c(=O)[nH]c1=O | < 3.87 | 4.08 | –
64 | O=c1nc2n(cc1/C=C\Br)C1CC(O)C(CO2)O1 (centres undefined) | – | – | inactive
65 | O=Cc1cn(S(=O)(=O)c2ccccc2)c2ccccc12 | – | – | inactive
66 | CCOC(=O)NN(CCOS(=O)(=O)c1ccc(C)cc1)CCOS(=O)(=O)c1ccc(C)cc1 | < 3.70 | 3.92 | –

Row | Structure (SMILES) | pEC50 | pIC50 | outcome
67 | Cc1c([N+](=O)[O-])oc2c1C(=O)N([N+](=O)[O-])CCC2 | < 4.05 | < 4.05 | –
68 | CCOC(=O)C1=C(C)Nc2ccccc2S1 | – | – | inactive
69 | CC(C(=O)c1ccc(Cl)cc1)/C(=N/NC(=O)NN)C(=O)Nc1cccc(C(F)(F)F)c1 (centres undefined) | < 4.10 | < 4.10 | –
70 | COc1ccc(/C=C/C(=O)/C=C/c2ccc(OC)cc2)cc1 | < 3.70 | 4.14 | –
71 | C[C@@H]1[C@@H](C)C(c2ccccc2)O[Si]1(C(C)(C)C)C(C)(C)C (some centres undefined) | < 4.00 | 4.25 | –
72 | O=c1/c(=C/c2ccc(Cl)cc2Cl)sc2nc3ccccc3n12 | – | – | inactive
73 | CCN(CC)CCN(C(=Nc1ccccc1)N1CCOCC1)c1ccccc1 | < 3.70 | 4.38 | –
74 | CCOC(=O)C1=C(O)c2ccc(OC)cc2C(=O)C1=O | < 3.47 | 3.69 | –
75 | Cc1nc2c(=O)n3c4c(cccc4c2o1)CCC3 | < 3.70 | 3.97 | –
76 | Nc1nc2cc(Cl)ccc2n1N | < 3.70 | < 3.70 | –
77 | Cc1noc(NS(=O)(=O)c2ccc(N)cc2)c1C | < 3.70 | < 3.70 | –
78 | Cc1cc(Cc2cc(C)c(O)c(Br)c2)cc(Br)c1O | < 3.70 | 5.80 | –
79 | COc1ccc(-n2c(N)c(C#N)c(C#N)c2-c2cccc([N+](=O)[O-])c2)cc1 | < 3.70 | 3.73 | –
80 | CCOP1(=O)CC(C)=C(Cl)C(O)C1 (centres undefined) | < 3.70 | < 3.70 | –
81 | COc1cc(C(O)CCBr)c(OC)cc1C (centres undefined) | < 3.70 | 5.64 | –
82 | CC1=C(C(=O)N(C(C)C)C(C)C)CC(C(=O)N(C(C)C)C(C)C)=C(C)N1 | < 3.70 | 3.92 | –
83 | O=C(NCCN1CCOCC1)C1(O)N=C(c2ccccc2)c2ccsc2-n2cccc21 (centres undefined) | < 3.70 | 3.91 | –
84 | OC1(c2ccccc2)OC(C#Cc2ccccc2)(c2ccccc2)c2ccccc21 (centres undefined) | – | – | inactive
85 | CC[n+]1c2ccc(C)cc2nc2c3ccccc3c(N)cc21 | < 3.70 | 5.99 | –
86 | Cc1cc(C)c2c(c1)NP(=S)(c1ccccc1)N2 (centres undefined) | < 3.70 | < 3.70 | –
87 | C#CCOCC12C=CC(O1)C1C(=O)N(C)C(=O)C12 (centres undefined) | < 3.70 | 4.13 and 3.74 | –
88 | CCc1noc2ccccc12 | < 3.47 | < 3.47 | –
